What was measured:
Experiment in all cases: relative viability (nuclei count vs DMSO), 5 days (fraction); higher = more cells survive
Entinostat + AZD7762 = compound: Nc1ccccc1NC(=O)c1ccc(CNC(=O)OCc2cccnc2)cc1 [Entinostat] + NC(=O)Nc1cc(-c2cccc(F)c2)sc1C(=O)N[C@H]1CCCNC1 [AZD7762] (partner 0.2 µM)
Outline: (§1)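 Relative viability equals treated-well nuclei counts divided by vehicle-well nuclei counts. Counts came from 4× images of lung cancer cell lines grown in 1536-well plates for 5 days after pin-tool dosing on the day after seeding. Dosing used one drug alone or a fixed anchor-drug dose plus five library-drug doses (not always all listed) in √10 steps, and values are medians of duplicate plates.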

SGI-1776 + Luminespib = compound: CN1CCC(CNc2ccc3ncc(-c4cccc(OC(F)(F)F)c4)n3n2)CC1 [SGI-1776] + CCNC(=O)c1noc(-c2cc(C(C)C)c(O)cc2O)c1-c1ccc(CN2CCOCC2)cc1 [Luminespib] (partner 0.01 µM)
Outline: as §1

[1] = compound: C1COCCN1C2=NC(=NC3=C2OC4=C3C=CC=N4)C5=CC(=CC=C5)NC(=O)C6=CN=C(C=C6)N + Cc1cc(Nc2cc(N3CCN(C)CC3)nc(Sc3ccc(NC(=O)C4CC4)cc3)n2)n[nH]1 [Tozasertib] (partner 0.1 µM)
Outline: as §1

SGI-1776 + Tozasertib = compound: CN1CCC(CNc2ccc3ncc(-c4cccc(OC(F)(F)F)c4)n3n2)CC1 [SGI-1776] + Cc1cc(Nc2cc(N3CCN(C)CC3)nc(Sc3ccc(NC(=O)C4CC4)cc3)n2)n[nH]1 [Tozasertib] (partner 0.1 µM)
Outline: as §1

Cell Line | relative viability (Entinostat + AZD7762; first compound 0.02 µM) | relative viability (Entinostat + AZD7762; first compound 0.06325 µM) | relative viability (Entinostat + AZD7762; first compound 0.2 µM) | relative viability (Entinostat + AZD7762; first compound 0.6325 µM) | relative viability (Entinostat + AZD7762; first compound 2 µM) | relative viability (SGI-1776 + Luminespib; first compound 0.08 µM) | relative viability (SGI-1776 + Luminespib; first compound 0.8 µM) | relative viability (SGI-1776 + Luminespib; first compound 2.53 µM) | relative viability (SGI-1776 + Luminespib; first compound 8 µM) | relative viability ([1]; first compound 0.02 µM) | relative viability ([1]; first compound 0.2 µM) | relative viability ([1]; first compound 0.6325 µM) | relative viability ([1]; first compound 2 µM) | relative viability (SGI-1776 + Tozasertib; first compound 0.08 µM) | relative viability (SGI-1776 + Tozasertib; first compound 0.8 µM) | relative viability (SGI-1776 + Tozasertib; first compound 2.53 µM) | relative viability (SGI-1776 + Tozasertib; first compound 8 µM) | relative viability ([1]; first compound 0.06325 µM)
NCI-H23 | 0.377 | 0.294 | 0.251 | 0.137 | 0.121 | 0.217 | 0.221 | 0.238 | 0.192 | 0.329 | 0.185 | 0.615 | 0.263 | 0.367 | 0.295 | 0.282 | 0.205 | –
NCI-H727 | 0.598 | 0.667 | 0.624 | 0.646 | 0.776 | 0.408 | 0.337 | 0.311 | 0.253 | 0.668 | 0.599 | 0.467 | 0.524 | 0.669 | 0.598 | 0.536 | 0.472 | 0.839
HCC-44 | 1.02 | 0.876 | 1.02 | 0.995 | 0.774 | 1.06 | 0.953 | 1.01 | 0.693 | 0.882 | 0.829 | 0.766 | 0.546 | 0.904 | 0.491 | 0.336 | 0.246 | 1.04
A-427 | 0.703 | 0.775 | 0.731 | 0.584 | 0.428 | 0.915 | 0.856 | 0.755 | 0.869 | 0.187 | 0.199 | 0.175 | 0.219 | 0.19 | 0.212 | 0.141 | 0.158 | 0.225
SW 900 | 0.723 | 0.699 | 0.726 | 0.488 | 0.268 | 0.178 | 0.173 | 0.208 | 0.166 | 0.519 | 0.371 | 0.373 | 0.279 | 0.693 | 0.608 | 0.467 | 0.222 | 0.762
NCI-H441 | 1.05 | 0.883 | 0.715 | 0.281 | 0.196 | 0.379 | 0.294 | 0.312 | 0.239 | 0.609 | 0.416 | 0.401 | 0.299 | 0.604 | 0.437 | 0.216 | 0.297 | 0.496
ABC-1 | 0.803 | 0.727 | 0.951 | 0.86 | 0.59 | 0.308 | 0.577 | 0.52 | 0.51 | 0.177 | 0.167 | 0.406 | 0.222 | 0.175 | 0.134 | 0.173 | 0.175 | 0.183
LK-2 | 0.481 | 0.623 | 0.5 | 0.345 | 0.21 | 0.17 | 0.188 | 0.257 | 0.159 | 0.172 | 0.167 | 0.154 | 0.176 | 0.181 | 0.206 | 0.16 | 0.182 | 0.156
NCI-H2085 | 0.965 | 0.93 | 0.909 | 0.683 | 0.692 | 0.481 | 0.44 | 0.513 | 0.333 | 0.667 | 0.691 | 0.456 | 0.463 | 0.858 | 0.617 | 0.463 | 0.389 | 0.826
NCI-H647 | 0.49 | 0.557 | 0.55 | 0.186 | 0.0556 | 0.263 | 0.198 | 0.192 | 0.144 | 0.155 | 0.252 | 0.137 | 0.145 | 0.389 | 0.198 | 0.175 | 0.175 | 0.292
NCI-H1793 | 0.508 | 0.643 | 0.302 | 0.23 | 0.302 | 0.217 | 0.163 | 0.286 | 0.161 | 0.314 | 0.262 | 0.29 | 0.279 | 0.335 | 0.248 | 0.252 | 0.22 | 0.305
LC-2-ad | 0.884 | 0.853 | 0.759 | 0.497 | 0.257 | 0.983 | 1.09 | 1.06 | 0.769 | 0.428 | 0.46 | 0.473 | 0.392 | 0.451 | 0.309 | 0.336 | 0.261 | 0.499
NCI-H3122 | 1.03 | 1.01 | 1.15 | 0.971 | 0.805 | 0.089 | 0.096 | 0.0857 | 0.0863 | 0.404 | 0.341 | 0.364 | 0.289 | 0.443 | 0.343 | 0.334 | 0.2 | 0.47
LCLC-97TM1 | 0.246 | 0.283 | 0.283 | 0.281 | 0.243 | 0.947 | 0.847 | 0.746 | 0.742 | 0.266 | 0.155 | 0.405 | 0.261 | 0.211 | 0.188 | 0.163 | 0.185 | 0.214
NCI-H358 | 0.55 | 0.69 | 0.6 | 0.408 | 0.192 | 0.729 | 0.506 | 0.432 | 0.315 | – | 0.0984 | 0.099 | 0.0866 | 0.0986 | 0.0957 | 0.102 | 0.0836 | 0.117
NCI-H1755 | 0.406 | 0.486 | 0.493 | 0.405 | 0.355 | 0.482 | 0.515 | 0.408 | 0.326 | 0.606 | 0.468 | 0.414 | 0.473 | 0.626 | 0.521 | 0.452 | 0.373 | 0.572
EPLC-272H | 0.339 | 0.224 | 0.141 | 0.137 | 0.14 | 0.402 | 0.536 | 0.501 | 0.2 | 0.249 | 0.175 | 0.223 | 0.199 | 0.326 | 0.194 | 0.194 | 0.175 | 0.173

From the supplement of paper PMC10307832
